The values below come from patent publication US20230041621A1, “SSTR5 ANTAGONISTS” (Kallyope, Inc., priority 2019, published 2023).

Each structure is given as a SMILES string.

The nature of this data set: Oral bioavailability after oral dosing in rat. The conditions noted are these: in vivo, Sprague Dawley rats, IV 1 mg/kg, PO 5 mg/kg, IV vehicle 5% DMSO + 30% PEG400 + 65% water, PO vehicle 0.5% methyl cellulose in water. On the procedure:
Oral bioavailability of the compounds was determined in Sprague Dawley rats. The table below summarizes the results. Each compound was dosed intravenously (IV) at 1 mg/kg and orally (PO) 5 mg/kg using the respective vehicles listed below. The compounds display low (<10%) oral bioavailability (F %).
On to `CCOc1cc(-c2ccc(F)cc2)c(C2CC2)cc1CN1CCC2(CC1)CN(c1ccc(S(=O)(=O)O)cc1)C(=O)O2` [Compound 1, 4-(8-((2-cyclopropyl-5-ethoxy-4′-fluoro-[1,1′-biphenyl]-4-yl)methyl)-2-oxo-1-oxa-3,8-diazaspiro[4.5]decan-3-yl)benzenesulfonic acid], for which the bioavailability turned out to be 4.6%.
To `CCOc1cc(-c2ccc(F)cc2)c(C2CC2)cc1CN1CCC2(CC1)CC(=O)N(c1ccc(S(=O)(=O)O)cc1)C2` [Compound 2, 4-(8-((2-cyclopropyl-5-ethoxy-4′-fluoro-[1,1′-biphenyl]-4-yl)methyl)-3-oxo-2,8-diazaspiro[4.5]decan-2-yl)benzenesulfonic acid] belongs 2.1%.
To `CCOc1cc(-c2ccc(F)cn2)c(C2CC2)cc1CN1CCC2(CC1)CN(c1ccc(S(=O)(=O)O)cc1)C(=O)O2` [Compound 3, 4-(8-(5-cyclopropyl-2-ethoxy-4-(5-fluoropyridin-2-yl)benzyl)-2-oxo-1-oxa-3,8-diazaspiro[4.5]decan-3-yl)benzenesulfonic acid] belongs 1.2%.
